In assay [1] the test system is primary human fibroblasts derived from IPF patients (LL29 cells). Kind of assay: Inhibition of the fibrotic process in TGF-β1-treated primary human fibroblasts from IPF patients (αSMA staining). Format: cell-based. The settings on record: Fibroblast, 96 h, TGF-β1 20 ng/mL, 4 days, read-out: Inhibition of fibrosis EC50. The method in brief: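 IPF-derived LL29 lung fibroblasts, 1,500 per well in F12 with 1% FBS, treated with compound (10 μM to […], 0.1% DMSO) and TGF-β1 20 ng/mL for 4 days at 37 °C. αSMA-positive live cells imaged and normalised to TGF-β1 controls; EC50 by nonlinear regression over triplicate wells.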

The test system of assay [2] is primary human mesenchymal stem cells (hMSCs). Kind of assay: Chondrogenesis induction screen in primary human mesenchymal stem cells (nodule imaging, Rhodamine B/Nile Red). Format: cell-based. The settings on record: 6 days; for EC (100% of TGF-b3 activity): Homo sapiens, Mesenchymal stem cells, 144 h, concentration required to induce chondrogenesis equivalent to TGF-β3 (10 ng/mL), read-out: Conc (nM) of 100% TGF-β3 activity; for Max. Activity as % TGF-β3 activity: TGF-β3 (10 ng/mL) positive control. On the procedure: The above synthesized compounds were screened using primary human mesenchymal stem cells (hMSCs) to determine their ability to induce chondrogenesis (process by which cartilage is developed).
Human Mesenchymal Stern Cell Culture: Primary human mesenchymal stem cells (hMSCs) were purchased from Lonza (Walkersville, Md.) and expanded in Mesenchymal Stem Cell Growth Media (Lonza). Cells between passage 3 and 6 were used for the experiments.
Compound Screening: Each compound was dissolved in DMSO as a 10 mM stock and used to prepare compound source plates. Serial dilution (1:3, 6-point dose-response curves from 2700 nM to 10 nM) and compound transfer was performed using the ECHO 550 (Labcyte, Sunnyvale, Calif.) into 96-well clear bottom assay plates (Greiner Bio-One) with appropriate DMSO backfill for a final DMSO concentration of 0.03%. hMSCs were plated at 20,000 cells/well in 250 μL/well incomplete Chondrogenic induction Medium (Lonza; DMEM, dexamethasone, ascorbate, insulin-transferrin-selenium [ITS supplement], gentamycin-amphotericin [GA-1000], sodium pyruvate, proline and L-glutamine). TGF-β3 (10 ng/mL) was used as a positive control for differentiation while negative control wells were treated with 75 nL DMSO for normalization and calculating EC50 values. Cells were incubated at 37° C. and 5% CO2 for 6 days. To image chondrogenic nodules, the cells were fixed using 4% formaldehyde (Electron Microscopy Sciences), and stained with 2 μg/mL Rhodamine B (Sigma-Aldrich) and 20 μM Nile Red (Sigma-Aldrich) [Johnson K., et.al, A Stem Cell-Based Approach to Cartilage Repair, Science, (2012), 336(6082), 717-721]. The nodules imaged (4 images per well at 4× magnification) by excitation at 531 nm and emission at 625 nm and quantified using the CellInsight CX5 (Thermo Scientific). Number of nodules in each well was normalized to the average of 3 DMSO treated wells on the same plate using Excel (Microsoft Inc.). The normalized averages (fold change over DMSO) of 3 replicate wells for each compound concentration were calculated. Due to solubility limitations of some of the compounds, curve fitting was incomplete leading to inaccurate EC50 determinations.
Using TGF-β3 as a positive control, the concentration of test compounds required to induce equivalent levels of chondrogenesis is reported. In addition, the maximum activity of each compound and the respective dose that each compound reached maximum chondrogenesis activity is reported.

In assay [3] the test system is Wnt activity (Sp5-Luc reporter, TCF/LEF binding sites) in SW480 colon carcinoma cells. Kind of assay: Sp5-Luc Wnt reporter gene screening assay in SW480 colon carcinoma cells. Format: cell-based, human. As to conditions: Homo sapiens. The method, boiled down: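 SW480 cells stably transduced with a lentiviral luciferase reporter driven by a Sp5 promoter with eight TCF/LEF sites were plated at 10,000/well in 10% FCS medium. Luminescence was normalised to DMSO and IC50 derived by four-parameter fit.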

As for `CC(C)(C)C(=O)Nc1cncc(-c2cc3c(-c4nc5c(-c6ccsc6)ccnc5[nH]4)n[nH]c3cn2)c1` [Compound 268, N-(5-(3-(7-(Thiophen-3-yl)-3H-imidazo[4,5-b]pyridin-2-yl)-1H-pyrazolo[3,4-c]pyridin-5-yl)pyridin-3-yl)pivalamide], the EC50 (in general, the concentration needed to bring the measured effect to its halfway point) in assay [1] was determined as 141 nM. In assay [2], the EC (100% of TGF-b3 activity) was found to be 25.8 nM. In addition, the IC50 (usually the concentration that inhibits the measured activity by half) in assay [3] stood at 9.7 nM.

With `CCCC(=O)Nc1cncc(-c2cc3c(-c4nc5c(-c6cccs6)ccnc5[nH]4)n[nH]c3cn2)c1` [Compound 329, N-(5-(3-(7-(Thiophen-2-yl)-3H-imidazo[4,5-b]pyridin-2-yl)-pyrazolo[3,4-c]pyridin-5-yl)pyridin-3-yl)butyramide], the EC50 in assay [1] came to 34 nM. In addition, in assay [2], the “Max. Activity as % TGF-β3 activity” value came to 300% and the EC (100% of TGF-b3 activity) turned out to be 110 nM. In assay [3], the IC50 was determined as 17.5 nM.

Turning to `CCCC(=O)Nc1cncc(-c2cc3c(-c4nc5c(-c6ccc(C)s6)ccnc5[nH]4)n[nH]c3cn2)c1` [Compound 381, N-(5-(3-(7-(5-Methylthiophen-2-yl)-3H-imidazo[4,5-b]pyridin-2-yl)-1H-pyrazolo[3,4-c]pyridin-5-yl)pyridin-3-yl)butyramide], the EC50 in assay [1] came to 18 nM. Besides, the EC (100% of TGF-b3 activity) in assay [2] was determined as 59.6 nM. The IC50 in assay [3] stood at 9.5 nM.

Regarding `O=C(CC1CCNCC1)Nc1cncc(-c2cc3c(-c4nc5c(-c6cccc(F)c6)ccnc5[nH]4)n[nH]c3cn2)c1` [Compound 945], in assay [1], the EC50 was 40 nM. Also, the EC (100% of TGF-b3 activity) in assay [2] turned out to be 54.7 nM. This compound also gave an IC50 in assay [3] of 463 nM.

Take `Oc1cncc(-c2cc3c(-c4nc5c(-c6cccc(F)c6)ccnc5[nH]4)n[nH]c3cn2)c1` [Compound 949, 5-(3-(7-(3-Fluorophenyl)-3H-imidazo[4,5-b]pyridin-2-yl)-1H-pyrazolo[3,4-c]pyridin-5-yl)pyridin-3-ol]: the EC50 in assay [1] came to 31 nM. In assay [2], the “Max. Activity as % TGF-β3 activity” value is given as 100% and the EC (100% of TGF-b3 activity) was determined as 143 nM. This compound yielded an IC50 in assay [3] of 111 nM.

Source of the values: patent publication US9815854B2, “3-(3H-imidazo[4,5-B]pyridin-2-yl)-1H-pyrazolo[3,4-C]pyridine and therapeutic uses thereof” (Samumed, LLC, priority 2014, dated 2017).
